Assay results taken from patent US10633389B2, “CARM1 inhibitors and uses thereof” (Epizyme, Inc., priority 2013, dated 2020).

system: asymmetric di-methyl PABP1 in RKO cells; experiment: RKO methylation assay, In Cell Western (ICW) for asymmetric di-methyl PABP1; format: cell-based; conditions: Homo sapiens, RKO, Cellular potencies, ICW PABP1me2a
Procedure, shortened: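 In-cell Western on fixed RKO cells after 48 h compound exposure: anti-asymmetric di-methyl PABP1 signal at 800 nm over DRAQ5 DNA signal at 700 nm. Percent inhibition set between DMSO wells and wells with 20 μM reference compound; IC50 curves fitted in triplicate.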

SMILES | IC50
CNC[C@@H](O)COc1cccc(-c2nc(-c3cnc4cnccn34)cc(N(C)C3CCOCC3)n2)c1 [Example 507-1a] | < 5 µM
CNCC(O)COc1cc(Cl)cc(-c2nc(C(=O)NCC3CCOCC3)cc(N(C)C3CCOCC3)n2)c1 (stereo not drawn) [Example 508-1a] | < 5 µM
CNCC(O)COc1cccc(-c2nc(-c3ccnc(C(=O)NC)c3)cc(N(C)C3CCOCC3)n2)c1 (stereo not drawn) [Example 510-1a] | 5 to 10 µM
CNC[C@@H](O)COc1cccc(-c2nc(-c3cn(S(C)(=O)=O)c4ncncc34)cc(N(C)C3CCOCC3)n2)c1 [Example 511-1a] | 5 to 10 µM
CNCC(O)COc1cccc(-c2nc(-c3ccc(N4CCOCC4)nn3)cc(N(C)C3CCOCC3)n2)c1 (stereo not drawn) [Example 512-1a] | 5 to 10 µM
CNCC(O)COc1cccc(-c2nc(Nc3ncc(C)cn3)cc(N(C)C3CCOCC3)n2)c1 (stereo not drawn) [Example 513-1a] | 5 to 10 µM
CNCC(O)COc1cccc(-c2nc(-c3cnc4c(C(=O)N(C)C)cnn4c3)cc(N(C)C3CCOCC3)n2)c1 (stereo not drawn) [Example 514-1a] | 5 to 10 µM
CNCC(O)COc1cccc(-c2nc(-c3cnn(CC(C)C)c3)cc(N(C)C3CCOCC3)n2)c1 (stereo not drawn) [Example 516-1a] | 5 to 10 µM
CNCC(O)COc1cccc(-c2nc(-c3cnc(C)n3C)cc(N(C)C3CCOCC3)n2)c1 (stereo not drawn) [Example 517-1a] | 5 to 10 µM
CNCC(O)COc1cccc(-c2nc(-c3nc(C)cn3C)cc(N(C)C3CCOCC3)n2)c1 (stereo not drawn) [Example 519-1a] | 5 to 10 µM
CNCC(O)COc1cccc(-c2nc(-c3nc(C)c[nH]3)cc(N(C)C3CCOCC3)n2)c1 (stereo not drawn) [Example 521-1a] | 5 to 10 µM
CNCC(O)COc1cc(Cl)cc(-c2nc(-c3ccncc3C3CC3)cc(N(C)C3CCOCC3)n2)c1 (stereo not drawn) [Example 522-1a] | 5 to 10 µM
CNCC(O)COc1cccc(-c2nc(N3CCO[C@H](CN)C3)cc(N(C)C3CCOCC3)n2)c1 (stereo partly drawn) [Example 524-1a] | 5 to 10 µM
CNCC(O)COc1cccc(-c2nc(-c3cncnc3)cc(N(C)C3CCOCC3)n2)c1 (stereo not drawn) [Example 525-1a] | 5 to 10 µM
CNC[C@@H](O)COc1cccc(-c2nc(-c3c[nH]c4ncncc34)c(C)c(N(C)C3CCOCC3)n2)c1 [Example 526-1a] | 5 to 10 µM
CNCC(O)COc1cccc(-c2nc(-c3c(C)nn(C)c3C)cc(N(C)C3CCOCC3)n2)c1 (stereo not drawn) [Example 528-1a] | 5 to 10 µM
CNCC(O)COc1cccc(-c2nc(-c3cn(C)c(C)n3)cc(N(C)C3CCOCC3)n2)c1 (stereo not drawn) [Example 529-1a] | 5 to 10 µM
CNCC(O)COc1cccc(-c2nc(N3CCN(C)CC3)cc(N(C)C3CCOCC3)n2)c1 (stereo not drawn) [Example 531-1a] | 5 to 10 µM
CNCC(O)COc1cccc(-c2nc(-c3cnc4ncnn4c3)cc(N(C)C3CCOCC3)n2)c1 (stereo not drawn) [Example 536-1a] | 5 to 10 µM
CNCC(O)COc1cccc(-c2nc(-c3ccncc3)c(C)c(N(C)C3CCOCC3)n2)c1 (stereo not drawn) [Example 537-1a] | 5 to 10 µM
CNCC(O)COc1cccc(-c2nc(N3CCC[C@H](O)C3)cc(N(C)C3CCOCC3)n2)c1 (stereo partly drawn) [Example 538-1a] | 10 to 20 µM
CNCC(O)COc1cccc(-c2nc(-c3ccnc(OC)c3)cc(N(C)C3CCOCC3)n2)c1 (stereo not drawn) [Example 541-1a] | 10 to 20 µM
CNCC(O)COc1cccc(-c2nc(N(C)C3CCOCC3)cc(-n3cccn3)n2)c1 (stereo not drawn) [Example 542-1a] | 10 to 20 µM
CNCC(O)COc1cccc(-c2nc(N(C)C3CCOCC3)cc(N3C[C@@H]4C[C@H]3CN4C)n2)c1 (stereo partly drawn) [Example 543-1a] | 10 to 20 µM

SMILES | IC50
CNCC(O)COc1cccc(-c2nc(C(C)=O)c(C)c(N(C)C3CCOCC3)n2)c1 (stereo not drawn) [Example 544-1a] | 10 to 20 µM
CNCC(O)COc1cccc(-c2nc(C(=O)NCC3CCOCC3)cc(N(C)C3CCOCC3)n2)c1 (stereo not drawn) [Example 548-1a] | 10 to 20 µM
CNCC(O)COc1cccc(-c2nc(N3CCN(C)C(=O)C3)cc(N(C)C3CCOCC3)n2)c1 (stereo not drawn) [Example 549-1a] | 10 to 20 µM
CNCC(O)COc1cccc(-c2nc(N3CC4(CCNCC4)c4ccccc43)cc(N(C)C3CCOCC3)n2)c1 (stereo not drawn) [Example 559-1a] | 10 to 20 µM
CNCC(O)COc1cccc(-c2nc(N3CCNCC3)c(C)c(N(C)C3CCOCC3)n2)c1 (stereo not drawn) [Example 560-1a] | 10 to 20 µM
CNCC(O)COc1cc(Cl)cc(-c2nc(-c3cnc4ccccn34)c(C)c(N(C)C3CCOCC3)n2)c1 (stereo not drawn) [Example 561-1a] | 10 to 20 µM
CNCC(O)COc1cccc(-c2nc(N(C)C3CCOCC3)cc(N3C[C@H]4C[C@@H]3CN4)n2)c1 (stereo partly drawn) [Example 562-1a] | 10 to 20 µM
CNCC(O)COc1cccc(-c2nc(-c3cnc4n3CCNC4)cc(N(C)C3CCOCC3)n2)c1 (stereo not drawn) [Example 563-1a] | 10 to 20 µM
CNCC(O)COc1cccc(-c2nc(-c3cnc4ccnn4c3)cc(N(C)C3CCOCC3)n2)c1 (stereo not drawn) [Example 564-1a] | 10 to 20 µM
CCOC(=O)c1sc(-c2cc(N(C)C3CCOCC3)nc(-c3cccc(OCC(O)CNC)c3)n2)nc1C (stereo not drawn) [Example 565-1a] | 10 to 20 µM
CNCC(O)COc1cccc(-c2nc(N3CC4CCC(C3)O4)cc(N(C)C3CCOCC3)n2)c1 (stereo not drawn) [Example 566-1a] | 10 to 20 µM
CNCC(O)COc1cccc(-c2nc(N(C)C3CCOCC3)c(C)c(N3CCNC[C@@H]3C)n2)c1 (stereo partly drawn) [Example 567-1a] | 10 to 20 µM
CNCC(O)COc1cccc(-c2nc(N(C)C3CCOCC3)cc(-n3nc(C)cc3C)n2)c1 (stereo not drawn) [Example 568-1a] | 10 to 20 µM
CNCC(O)COc1cccc(-c2nc(-c3sc(C)nc3C)cc(N(C)C3CCOCC3)n2)c1 (stereo not drawn) [Example 569-1a] | 10 to 20 µM
CNCC(O)COc1cccc(-c2nc(-c3cc4ccccc4o3)cc(N(C)C3CCOCC3)n2)c1 (stereo not drawn) [Example 570-1a] | 10 to 20 µM
CNC[C@@H](O)COc1cccc(-c2nc(-c3c[nH]c4ncncc34)cc(N(C)C3CCOCC3)n2)c1 [Example 571-1a] | 10 to 20 µM
CNCC(O)COc1cccc(-c2nc(-c3cnc(CO)n3C)cc(N(C)C3CCOCC3)n2)c1 (stereo not drawn) [Example 572-1a] | 10 to 20 µM
CNCC(O)COc1cccc(-c2nc(SC)cc(N(C)C3CCOCC3)n2)c1 (stereo not drawn) [Example 573-1a] | 10 to 20 µM
CNCC(O)COc1cc(Cl)cc(-c2nc(-c3ccncc3)c(C3CC3)c(N(C)C3CCOCC3)n2)c1 (stereo not drawn) [Example 574-1a] | 10 to 20 µM
CNCC(O)COc1cccc(-c2nc(N3CCNC(=O)C3)cc(N(C)C3CCOCC3)n2)c1 (stereo not drawn) [Example 575-1a] | 10 to 20 µM
CNCC(O)COc1cccc(-c2nc(N3CCN4C(=O)OC[C@@H]4C3)cc(N(C)C3CCOCC3)n2)c1 (stereo partly drawn) [Example 576-1a] | 10 to 20 µM
CNCC(O)COc1cc(Cl)cc(-c2nc(C(=O)N(C)CC3CCOCC3)cc(N(C)C3CCOCC3)n2)c1 (stereo not drawn) [Example 577-1a] | 10 to 20 µM
CNCC(O)COc1cccc(-c2nc(N3CCN(CCF)[C@@H](C)C3)cc(N(C)C3CCOCC3)n2)c1 (stereo partly drawn) [Example 578-1a] | 10 to 20 µM
CNCC(O)COc1cccc(-c2nc(N3CCC4(CCO4)CC3)cc(N(C)C3CCOCC3)n2)c1 (stereo not drawn) [Example 579-1a] | 10 to 20 µM

SMILES | IC50
CNCC(O)COc1cccc(-c2nc(-c3cncn3C)cc(N(C)C3CCOCC3)n2)c1 (stereo not drawn) [Example 580-1a] | 10 to 20 µM
CNCC(O)COc1cccc(-c2nc(N3CCN(C(=O)OC)[C@@H](C)C3)cc(N(C)C3CCOCC3)n2)c1 (stereo partly drawn) [Example 581-1a] | 10 to 20 µM
CNCC(O)COc1cc(Cl)cc(-c2nc(-c3ccnc(N(C)C)c3)cc(N(C)C3CCOCC3)n2)c1 (stereo not drawn) [Example 609-1a] | 10 to 20 µM
CNCC(O)COc1cc(Cl)cc(-c2nc(-c3cnn(C)c3)cc(N(C)C3CCOCC3)n2)c1 (stereo not drawn) [Example 610-1a] | 10 to 20 µM
CNCC(O)COc1cc(Cl)cc(-c2nc(-c3ccncc3)c(Br)c(N(C)C3CCOCC3)n2)c1 (stereo not drawn) [Example 611-1a] | 10 to 20 µM
CNCC(O)COc1cc(Cl)cc(-c2nc(-c3cnc4ccccc4n3)c(C)c(N(C)C3CCOCC3)n2)c1 (stereo not drawn) [Example 612-1a] | 10 to 20 µM
CNCC(O)COc1cccc(-c2nc(-c3ccc(C(F)(F)F)nc3)cc(N(C)C3CCOCC3)n2)c1 (stereo not drawn) [Example 613-1a] | 10 to 20 µM
CNCC(O)COc1cc(Cl)cc(-c2nc(-c3ccc(N(C)C)nc3)c(C)c(N(C)C3CCOCC3)n2)c1 (stereo not drawn) [Example 614-1a] | 10 to 20 µM
CNCC(O)COc1cccc(-c2nc(C3CCNCC3)cc(N(C)C3CCOCC3)n2)c1 (stereo not drawn) [Example 615-1a] | 10 to 20 µM
CNCC(O)COc1cccc(-c2nc(-c3cccc4ncccc34)cc(N(C)C3CCOCC3)n2)c1 (stereo not drawn) [Example 616-1a] | 10 to 20 µM
CNCC(O)COc1cc(Cl)cc(-c2nc(-c3cn[nH]c3)c(C)c(N(C)C3CCOCC3)n2)c1 (stereo not drawn) [Example 617-1a] | 10 to 20 µM
CNCC(O)COc1cc(Cl)cc(-c2nc(N(C)C3CCOCC3)c(C)c(-n3cccn3)n2)c1 (stereo not drawn) [Example 618-1a] | 10 to 20 µM
C=C(C)c1cc(N(C)C2CCOCC2)nc(-c2cc(Cl)cc(OCC(O)CNC)c2)n1 (stereo not drawn) [Example 619-1a] | 10 to 20 µM
CNCC(O)COc1cccc(-c2nc(-c3cnc4nccn4c3)cc(N(C)C3CCOCC3)n2)c1 (stereo not drawn) [Example 620-1a] | 10 to 20 µM
CNCC(O)COc1cccc(-c2nc(C3=CCCC3)cc(N(C)C3CCOCC3)n2)c1 (stereo not drawn) [Example 621-1a] | 10 to 20 µM
CNCC(O)COc1cccc(-c2nc(-c3cccc(C#N)c3)cc(N(C)C3CCOCC3)n2)c1 (stereo not drawn) [Example 622-1a] | 10 to 20 µM
CNCC(O)COc1cc(Cl)cc(-c2nc(C(=O)OC)cc(N(C)C3CCOCC3)n2)c1 (stereo not drawn) [Example 623-1a] | 10 to 20 µM
CNCC(O)COc1cccc(-c2nc(-c3nc(C)cs3)cc(N(C)C3CCOCC3)n2)c1 (stereo not drawn) [Example 624-1a] | 10 to 20 µM
CNCC(O)COc1cc(Cl)cc(-c2nc(-c3ccncc3)cc(N3CCOCC3)n2)c1 (stereo not drawn) [Example 632-1a] | ≥ 20 µM
CNCC(O)COc1cccc(-c2nc(NC3CCOCC3)c(C)c(N3CCN(C(C)C)CC3)n2)c1 (stereo not drawn) [Example 644-1a] | ≥ 20 µM
CNCC(O)COc1cccc(-c2nc(NC3CCOCC3)cc(-c3ccc4c(c3)OCCO4)n2)c1 (stereo not drawn) [Example 657-1a] | ≥ 20 µM
CNCC(O)COc1cccc(-c2nc(NC3CCOCC3)cc(-c3ccc(OC)c(OC)c3)n2)c1 (stereo not drawn) [Example 658-1a] | ≥ 20 µM
CNCC(O)COc1cc(Cl)cc(-c2nc(NC3CCNCC3)cc(-c3ccncc3)n2)c1 (stereo not drawn) [Example 665-1a] | ≥ 20 µM
CNCC(O)COc1cccc(-c2nc(-c3ccncc3)cc(N(C)C3CCNCC3)n2)c1 (stereo not drawn) [Example 669-1a] | ≥ 20 µM
